Results as given in PubChem BioAssay AID330 (DTP/NCI, 2004).
Values joined by “and” are separate entries in the source; they are usually repeats but may differ in a detail not shown here. Identical values can stand only once. Inconclusive results and toxic doses are left out.

Test system: P388 leukemia ip, CD2F1 mice, survival T/C
Assay: NCI In Vivo Anticancer Drug Screen. Data for tumor model P388 Leukemia (intraperitoneal) in CD2F1 (CDF1) mice
Conditions: endpoint: median survival time, higher = longer survival
Summary of the method: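 Mice carrying the transplanted tumor received test compound or vehicle. Survival was recorded in each group, and the value is the treated-group measurement divided by that of the vehicle-treated control group.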

[1] = dose: 50.0 mg/kg/injection, schedule: Q01DX005 (ip), vehicle: saline with Tween-80
[2] = dose: 60.0 mg/kg/injection, schedule: Q01DX005 (ip), vehicle: saline with Tween-80
[3] = dose: 120.0 mg/kg/injection, schedule: Q01DX005 (ip), vehicle: saline with Tween-80
[4] = dose: 240.0 mg/kg/injection, schedule: Q01DX005 (ip), vehicle: saline with Tween-80
[5] = dose: 50.0 mg/kg/injection, schedule: Q01DX009 (ip), vehicle: Klucel (hydroxypropylcellulose) (HPC)
[6] = dose: 100.0 mg/kg/injection, schedule: Q01DX009 (ip), vehicle: Klucel (hydroxypropylcellulose) (HPC)
[7] = dose: 3.13 mg/kg/injection, schedule: Q01DX009 (ip), vehicle: Klucel (hydroxypropylcellulose) (HPC)
[8] = dose: 6.25 mg/kg/injection, schedule: Q01DX009 (ip), vehicle: Klucel (hydroxypropylcellulose) (HPC)
[9] = dose: 12.5 mg/kg/injection, schedule: Q01DX009 (ip), vehicle: Klucel (hydroxypropylcellulose) (HPC)
[10] = dose: 12.5 mg/kg/injection, schedule: Q01DX009 (ip), vehicle: saline with Tween-80
[11] = dose: 25.0 mg/kg/injection, schedule: Q01DX009 (ip), vehicle: saline with Tween-80
[12] = dose: 50.0 mg/kg/injection, schedule: Q01DX009 (ip), vehicle: saline with Tween-80
[13] = dose: 50.0 mg/kg/injection, schedule: Q01DX005 (ip), vehicle: Klucel (hydroxypropylcellulose) (HPC)
[14] = dose: 100.0 mg/kg/injection, schedule: Q01DX005 (ip), vehicle: Klucel (hydroxypropylcellulose) (HPC)
[15] = dose: 100.0 mg/kg/injection, schedule: Q01DX009 (ip), vehicle: saline with Tween-80
[16] = dose: 6.25 mg/kg/injection, schedule: Q01DX009 (ip), vehicle: saline with Tween-80
[17] = dose: 100.0 mg/kg/injection, schedule: Q01DX005 (ip), vehicle: saline with Tween-80

## CCOC(=O)c1ccc(=O)n2c1[nH]c1ccccc12
dose: 12.5 mg/kg/injection, schedule: Q01DX005 (ip), vehicle: saline with Tween-80
  T/C: 105 % of control
dose: 25.0 mg/kg/injection, schedule: Q01DX005 (ip), vehicle: saline with Tween-80
  T/C: 108 % of control
[1]
  T/C: 100 % of control and 108 % of control

## CS(=O)CCCN=C=S (stereo unspecified)
dose: 18.75 mg/kg/injection, schedule: Q01DX009 (ip), vehicle: saline with Tween-80
  T/C: 111 % of control
dose: 37.5 mg/kg/injection, schedule: Q01DX009 (ip), vehicle: saline with Tween-80
  T/C: 110 % of control
dose: 75.0 mg/kg/injection, schedule: Q01DX009 (ip), vehicle: saline with Tween-80
  T/C: 111 % of control

## COc1ccc(-c2nc(N)nc(-c3nc(N)nc(-c4ccc(OC)cc4)c3-c3ccc(OC)cc3)c2-c2ccc(OC)cc2)cc1
[2]
  T/C: 96 % of control
[3]
  T/C: 96 % of control
[4]
  T/C: 99 % of control

## Cc1ccc(/C=C/[N+](=O)[O-])cc1
dose: 6.25 mg/kg/injection, schedule: Q01DX009 (ip), vehicle: saline sonified
  T/C: 100 % of control
dose: 12.5 mg/kg/injection, schedule: Q01DX009 (ip), vehicle: saline sonified
  T/C: 100 % of control
dose: 25.0 mg/kg/injection, schedule: Q01DX009 (ip), vehicle: saline sonified
  T/C: 100 % of control

## Cc1nnc(CN2CCOCC2)n1-c1ccc(Cl)cc1C(=O)c1ccccc1
dose: 25.0 mg/kg/injection, schedule: Q01DX009 (ip), vehicle: Klucel (hydroxypropylcellulose) (HPC)
  T/C: 86 % of control
[5]
  T/C: 96 % of control
[6]
  T/C: 105 % of control

## C[n+]1ccn2cc(S(=O)(=O)[O-])ccc21
dose: 3.12 mg/kg/injection, schedule: Q01DX009 (ip), vehicle: saline
  T/C: 92 % of control
dose: 6.25 mg/kg/injection, schedule: Q01DX009 (ip), vehicle: saline
  T/C: 95 % of control

## C[CH2][Hg][S]c1nsc([S][Hg][CH2]C)n1
[7]
  T/C: 94 % of control
[8]
  T/C: 118 % of control and 95 % of control
[9]
  T/C: 98 % of control and 115 % of control

## CCOCC#CC(OCC)OCC
dose: 60.0 mg/kg/injection, schedule: Q01DX005 (ip), vehicle: saline
  T/C: 101 % of control
dose: 120.0 mg/kg/injection, schedule: Q01DX005 (ip), vehicle: saline
  T/C: 99 % of control
dose: 240.0 mg/kg/injection, schedule: Q01DX005 (ip), vehicle: saline
  T/C: 99 % of control

## Cc1noc(-c2ccc([N+](=O)[O-])o2)n1
dose: 130.0 mg/kg/injection, schedule: Q01DX009 (ip), vehicle: Klucel (hydroxypropylcellulose) (HPC)
  T/C: 100 % of control
dose: 200.0 mg/kg/injection, schedule: Q01DX009 (ip), vehicle: Klucel (hydroxypropylcellulose) (HPC)
  T/C: 104 % of control

## Clc1ccc(OCCC(Cn2ccnc2)c2ccc(Cl)cc2Cl)c(Cl)c1 (stereo unspecified)
[10]
  T/C: 113 % of control
[11]
  T/C: 112 % of control
[12]
  T/C: 101 % of control

## CCOC(=O)c1cnc2c(C(F)(F)F)cccc2c1N=[N+]=[N-]
[2]
  T/C: 99 % of control
[3]
  T/C: 96 % of control
[4]
  T/C: 95 % of control

## CC(=O)/C=C1/N(C)c2ccccc2C1(C)C
[13]
  T/C: 100 % of control
[14]
  T/C: 100 % of control
dose: 200.0 mg/kg/injection, schedule: Q01DX005 (ip), vehicle: Klucel (hydroxypropylcellulose) (HPC)
  T/C: 99 % of control

## CN(C)c1c(-c2ccc(Cl)cc2)cc(-c2ccccc2)[nH]c1=O
dose: 1.56 mg/kg/injection, schedule: Q01DX009 (ip), vehicle: Klucel (hydroxypropylcellulose) (HPC)
  T/C: 101 % of control
[7]
  T/C: 101 % of control
[8]
  T/C: 100 % of control
[9]
  T/C: 99 % of control and 89 % of control
[5]
  T/C: 101 % of control
[6]
  T/C: 106 % of control

## O=C(O)c1cccc(C(=O)O)c1O
dose: 50.0 mg/kg/injection, schedule: Q01DX001 (ip), vehicle: saline with Tween-80
  T/C: 102 % of control
[12]
  T/C: 100 % of control
dose: 100.0 mg/kg/injection, schedule: Q01DX001 (ip), vehicle: saline with Tween-80
  T/C: 105 % of control
[15]
  T/C: 103 % of control
dose: 200.0 mg/kg/injection, schedule: Q01DX001 (ip), vehicle: saline with Tween-80
  T/C: 110 % of control
dose: 200.0 mg/kg/injection, schedule: Q01DX009 (ip), vehicle: saline with Tween-80
  T/C: 94 % of control

## COc1ccc(CC2C(=O)NC(C)C(=O)N(C)C3C(=O)N(C)C(Cc4ccc(O)c(c4)Oc4ccc(cc4)C3O)C(=O)NC(C)C(=O)NC(C)C(=O)N2C)cc1 (stereo unspecified) (tested in a mixture with another compound)
dose: 1.0 mg/kg/injection, schedule: Q01DX009 (ip), vehicle: Klucel (hydroxypropylcellulose) (HPC)
  T/C: 158 % of control
dose: 2.0 mg/kg/injection, schedule: Q01DX009 (ip), vehicle: Klucel (hydroxypropylcellulose) (HPC)
  T/C: 158 % of control
dose: 4.0 mg/kg/injection, schedule: Q01DX009 (ip), vehicle: Klucel (hydroxypropylcellulose) (HPC)
  T/C: 155 % of control
dose: 250.0 micrograms/kg/injection, schedule: Q01DX009 (ip), vehicle: saline
  T/C: 156 % of control
dose: 500.0 micrograms/kg/injection, schedule: Q01DX009 (ip), vehicle: saline
  T/C: 152 % of control
dose: 1000.0 micrograms/kg/injection, schedule: Q01DX009 (ip), vehicle: saline
  T/C: 158 % of control

## CCOc1ccc2c(c1)/C(=C\C=C\C1CC(C)C3CC(OCC)CCC3N1CC)CC(C)N2CC (stereo unspecified)
dose: 1.25 mg/kg/injection, schedule: Q01DX009 (ip), vehicle: saline + alcohol
  T/C: 120 % of control

## O=C(CNC(=O)Nc1cccc([N+](=O)[O-])c1)NNC(=O)Nc1ccccc1F
[2]
  T/C: 101 % of control
[3]
  T/C: 101 % of control
[4]
  T/C: 99 % of control

## COc1cc(C=C(C(C)=O)C(C)=O)ccc1O
dose: 50.0 mg/kg/injection, schedule: Q04DX003 (ip), vehicle: saline with Tween-80
  T/C: 100 % of control
dose: 100.0 mg/kg/injection, schedule: Q04DX003 (ip), vehicle: saline with Tween-80
  T/C: 100 % of control
dose: 200.0 mg/kg/injection, schedule: Q04DX003 (ip), vehicle: saline with Tween-80
  T/C: 100 % of control

## CC(=O)OCC(O)CS(=O)c1ccc(C)cc1 (stereo unspecified)
[11]
  T/C: 100 % of control
[12]
  T/C: 99 % of control
[15]
  T/C: 98 % of control

## CC1(C)OC2OC(COC(=O)c3ccccc3)C(=O)C2O1 (stereo unspecified)
dose: 3.13 mg/kg/injection, schedule: Q01DX009 (ip), vehicle: saline with Tween-80
  T/C: 95 % of control
[16]
  T/C: 93 % of control
[10]
  T/C: 89 % of control

## O=C1[O][Sn]2([Cl])[NH]C1C[S]2 (stereo unspecified)
[13]
  T/C: 100 % of control
[14]
  T/C: 102 % of control

## COc1cc2c(cc1O)NC(OC)C1CC(O)CN1C2=O (stereo unspecified)
dose: 1.0 mg/kg/injection, schedule: Q01DX005 (ip), vehicle: saline with Tween-80
  T/C: 121 % of control
dose: 2.0 mg/kg/injection, schedule: Q01DX005 (ip), vehicle: saline with Tween-80
  T/C: 119 % of control
dose: 16.0 mg/kg/injection, schedule: Q01DX005 (ip), vehicle: saline with Tween-80
  T/C: 161 % of control

## O=S(=O)(c1ccccc1)N(Cl)Cl
[16]
  T/C: 102 % of control and 104 % of control and 123 % of control
[10]
  T/C: 104 % of control and 120 % of control and 93 % of control
[12]
  T/C: 111 % of control

## O=C(CC(=O)C(F)(F)F)c1cccs1.O=C(CC(=O)C(F)(F)F)c1cccs1.O=C(CC(=O)C(F)(F)F)c1cccs1.[Gd]
dose: 50.0 mg/kg/injection, schedule: Q01DX009 (ip), vehicle: saline
  T/C: 96 % of control
dose: 100.0 mg/kg/injection, schedule: Q01DX009 (ip), vehicle: saline
  T/C: 96 % of control
dose: 200.0 mg/kg/injection, schedule: Q01DX009 (ip), vehicle: saline
  T/C: 99 % of control

## O=C(NC1=NN(Cc2ccccc2)C(=O)C1)c1ccc(S(=O)(=O)F)cc1
[2]
  T/C: 113 % of control
[3]
  T/C: 121 % of control

## Cc1ccc(S(=O)(=O)C2CC(=O)N(c3ccc(F)c(Cl)c3)C2=O)cc1 (stereo unspecified)
dose: 100.0 mg/kg/injection, schedule: Q04DX002 (ip), vehicle: saline with Tween-80
  T/C: 94 % of control
dose: 200.0 mg/kg/injection, schedule: Q04DX002 (ip), vehicle: saline with Tween-80
  T/C: 94 % of control
dose: 400.0 mg/kg/injection, schedule: Q04DX002 (ip), vehicle: saline with Tween-80
  T/C: 96 % of control

## O=S1(=O)c2ccccc2N(c2ccccc2)c2nnc(COc3ccccc3)n21
[1]
  T/C: 90 % of control
[17]
  T/C: 88 % of control

## CCB1OC2OC3C4OB(CC)OC4OC3C2O1 (stereo unspecified)
[1]
  T/C: 103 % of control
[17]
  T/C: 103 % of control
dose: 200.0 mg/kg/injection, schedule: Q01DX005 (ip), vehicle: saline with Tween-80
  T/C: 103 % of control
